Data taken from patent US20260092246A1, “PLATFORM FOR ANTIMICROBIAL SUSCEPTIBILITY TESTING AND BACTERIAL IDENTIFICATION” (ASTRADX, INC., priority 2022, published 2026).
Like-named read-outs stand apart in the source and are kept apart here.

System: E. coli
Assay: Antimicrobial susceptibility testing by dilution-temporal modeling (DTM) of growth in microwell plates with doubling dilutions of antibiotic
Format: cell-based
Conditions: Escherichia coli
Excerpt: “Categorical agreement” is a term of art in AST that describes whether an organism is susceptible or resistant by each of two methods, typically a reference method and an investigative method. The reference method is broth microdilution and comes from the CLSI (M100).
Each experiment involved a standard inoculum of bacteria grown at a concentration similar to what was recovered from the growth-detection step, which began with whole blood. The inoculum was automatically dispensed into the wells of a microwell plate. The wells contained doubling dilutions of standard antibiotics such as cefepime, meropenem, ciprofloxacin, and gentamicin (for gram-negative bacteria). A large number of wells enabled multiple replicates per condition, providing robustness to random dropouts or to growth variation.
In each experiment, the growth and color of each well was monitored for growth by an automated imager. Serial images for each “bug-drug” combination were combined to create a unified picture of bacterial growth for each antibiotic, measure MICs, and determine any correction factors necessary to maximize S/I/R categorical agreement with reference MICs. […]

MIC (cefepime-resistant strain of E. coli, FIG. 6B, within a single doubling dilution of reference-method MIC, read-out: MIC by the disclosed method (concentration at which growth falls off)) [µg/mL] | Compound | MIC (read-out: MIC by the disclosed method (concentration at which fall in growth is visible)) [µg/mL]
16 | CO/N=C(\C(=O)N[C@@H]1C(=O)N2C(C(=O)[O-])=C(C[N+]3(C)CCCC3)CS[C@H]12)c1csc(N)n1 [cefepime] | –
– | C[C@@H](O)[C@H]1C(=O)N2C(C(=O)O)=C(S[C@@H]3CN[C@H](C(=O)N(C)C)C3)[C@H](C)[C@H]12 [meropenem] | 0.5
